Data from ChEMBL document CHEMBL3860070, “Optimization and biological evaluation of celastrol derivatives as Hsp90-Cdc37 interaction disruptors with improved druglike properties” (Bioorg Med Chem, 2016).
Calls of active or inactive are those of the source. The calls are words filed in the database; no cut-off is given here.

Assays:
[1] = Antiproliferative activity against human A549 cells assessed as reduction in cell viability after 48 hrs by MTT assay; type: functional, cell-based; settings: A549, 48 h
[2] = Antiproliferative activity against human MCF7 cells assessed as reduction in cell viability after 48 hrs by MTT assay; type: functional, cell-based; settings: MCF7, 48 h
[3] = Antiproliferative activity against human PANC1 cells assessed as reduction in cell viability after 48 hrs by MTT assay; type: functional, cell-based; settings: PANC-1, 48 h
Homo sapiens = species: Homo sapiens; assay: Inhibition of His-tagged full length Hsp90/GST-tagged Cdc37 middle domain (unknown origin) interaction at 50 uM after 1 hr by TR-FRET assay relative to control
[4] = Permeability of the compound at pH 7.4 by PAMPA-based pION assay; type: ADME; settings: read-out: permeability
[5] = Inhibition of His-tagged full length Hsp90/GST-tagged Cdc37 middle domain (unknown origin) interaction after 1 hr by TR-FRET assay; parameters: species or system Homo sapiens
PANC-1 [6] = assay: Inhibition of Hsp90/Cdc37 interaction in human PANC1 cells assessed as downregulation of Akt after 24 hrs by Western blot analysis; type: cell-based
[7] = Cell cycle arrest in human PANC1 cells assessed as accumulation at G0/G1 phase at 1 uM after 24 hrs by propidium iodide staining-based FACS analysis (reference value: 36.48 %); type: functional; settings: PANC-1
PANC-1 [8] = assay: Induction of apoptosis in human PANC1 cells after 24 hrs by Annexin V-FITC/propidium iodide-based FACS analysis; type: functional, cell-based
PANC-1 [9] = assay: Induction of apoptosis in human PANC1 cells assessed as early apoptotic cells at 0.5 uM after 24 hrs by Annexin V-FITC/propidium iodide-based FACS analysis (reference value: 4.31 %); type: functional
[10] = Cell cycle arrest in human PANC1 cells assessed as accumulation at S phase at 1 uM after 24 hrs by propidium iodide staining-based FACS analysis (reference value: 29.96 %); type: functional; settings: PANC-1
PANC-1 [11] = assay: Induction of apoptosis in human PANC1 cells assessed as viable cells at 1 uM after 24 hrs by Annexin V-FITC/propidium iodide-based FACS analysis (reference value: 94.63 %); type: functional; settings: PANC-1, 24 h, read-out: Activity
PANC-1 [12] = assay: Induction of apoptosis in human PANC1 cells assessed as viable cells at 0.5 uM after 24 hrs by Annexin V-FITC/propidium iodide-based FACS analysis (reference value: 94.63 %); type: functional; settings: PANC-1, 24 h, read-out: Activity
PANC-1 [13] = assay: Induction of apoptosis in human PANC1 cells assessed as necrotic cells at 1 uM after 24 hrs by Annexin V-FITC/propidium iodide-based FACS analysis (reference value: 0.75 %); type: functional
PANC-1 [14] = assay: Induction of apoptosis in human PANC1 cells assessed as late apoptotic cells at 1 uM after 24 hrs by Annexin V-FITC/propidium iodide-based FACS analysis (reference value: 0.30 %); type: functional
PANC-1 [15] = assay: Induction of apoptosis in human PANC1 cells assessed as late apoptotic cells at 0.5 uM after 24 hrs by Annexin V-FITC/propidium iodide-based FACS analysis (reference value: 0.30 %); type: functional
[16] = Cell cycle arrest in human PANC1 cells assessed as accumulation at G2/M phase at 1 uM after 24 hrs by propidium iodide staining-based FACS analysis (reference value: 33.56 %); type: functional; settings: PANC-1
PANC-1 [17] = assay: Inhibition of Hsp90/Cdc37 interaction in human PANC1 cells assessed as downregulation of Cdk4 after 24 hrs by Western blot analysis; type: cell-based
[18] = Cell cycle arrest in human PANC1 cells assessed as accumulation at S phase at 0.5 uM after 24 hrs by propidium iodide staining-based FACS analysis (reference value: 29.96 %); type: functional; settings: PANC-1
[19] = Cell cycle arrest in human PANC1 cells assessed as accumulation at G0/G1 phase at 0.5 uM after 24 hrs by propidium iodide staining-based FACS analysis (reference value: 36.48 %); type: functional; settings: PANC-1
PANC-1 [20] = assay: Induction of apoptosis in human PANC1 cells assessed as early apoptotic cells at 1 uM after 24 hrs by Annexin V-FITC/propidium iodide-based FACS analysis (reference value: 4.31 %); type: functional
[21] = Cell cycle arrest in human PANC1 cells assessed as accumulation at G2/M phase at 0.5 uM after 24 hrs by propidium iodide staining-based FACS analysis (reference value: 33.56 %); type: functional; settings: PANC-1
PANC-1 [22] = assay: Induction of apoptosis in human PANC1 cells assessed as necrotic cells at 0.5 uM after 24 hrs by Annexin V-FITC/propidium iodide-based FACS analysis (reference value: 0.75 %); type: functional
PANC-1 [23] = assay: Inhibition of Hsp90/Cdc37 interaction in human PANC1 cells assessed as induction of Hsp70 at 0.1 to 5 uM after 24 hrs by Western blot analysis; type: cell-based
[24] = Antiproliferative activity against paclitaxel-resistant human A549 cells assessed as reduction in cell viability after 48 hrs by MTT assay; type: functional, cell-based; settings: A549, 48 h

| Structure (SMILES) | IC50 [1] | IC50 [2] | IC50 [3] | inhibition (Homo sapiens) | Papp [4] | further results |
| --- | --- | --- | --- | --- | --- | --- |
| CC1=C(O)C(=O)C=C2C1=CC=C1[C@@]2(C)CC[C@@]2(C)[C@@H]3C[C@](C)(C(=O)NCCN(C)C)CC[C@]3(C)CC[C@]12C | 1080 nM | 640 nM | 1230 nM | 93.6% | 45 ×10⁻⁶ cm/s | IC50 [5]: 5630 nM |
| CC1=C(O)C(=O)C=C2C1=CC=C1[C@@]2(C)CC[C@@]2(C)[C@@H]3C[C@](C)(C(=O)N4CCCCC4)CC[C@]3(C)CC[C@]12C | 1920 nM | 1890 nM | 2290 nM | 54.8% |  |  |
| CC1=C(O)C(=O)C=C2C1=CC=C1[C@@]2(C)CC[C@@]2(C)[C@@H]3C[C@](C)(C(=O)NC(C)C)CC[C@]3(C)CC[C@]12C | 2640 nM | 2550 nM | 2040 nM | 60% |  |  |
| CCCNC(=O)[C@]1(C)CC[C@]2(C)CC[C@]3(C)C4=CC=C5C(=CC(=O)C(O)=C5C)[C@]4(C)CC[C@@]3(C)[C@@H]2C1 | 2490 nM | 2040 nM | 2370 nM | 60% |  |  |
| CC1=C(O)C(=O)C=C2C1=CC=C1[C@@]2(C)CC[C@@]2(C)[C@@H]3C[C@](C)(C(=O)NCCN4CCCCC4)CC[C@]3(C)CC[C@]12C | 840 nM | 1180 nM | 1250 nM | 75.7% | 18.1 ×10⁻⁶ cm/s |  |
| CCCOC(=O)[C@]1(C)CC[C@]2(C)CC[C@]3(C)C4=CC=C5C(=CC(=O)C(O)=C5C)[C@]4(C)CC[C@@]3(C)[C@@H]2C1 | 1740 nM | 1520 nM | 1310 nM | 44.9% |  |  |
| CC1=C(O)C(=O)C=C2C1=CC=C1[C@@]2(C)CC[C@@]2(C)[C@@H]3C[C@](C)(C(=O)OCC(C)C)CC[C@]3(C)CC[C@]12C | 3420 nM | 2060 nM | 1900 nM | 28.4% |  |  |
| CC1=C(O)C(=O)C=C2C1=CC=C1[C@@]2(C)CC[C@@]2(C)[C@@H]3C[C@](C)(C(=O)NCCN4CCN(C)CC4)CC[C@]3(C)CC[C@]12C | 1010 nM | 1020 nM | 1120 nM | 96.9% | 29 ×10⁻⁶ cm/s | inhibition (PANC-1 [6]): Dose-dependent effect; Activity [7]: 55.4%; Activity (PANC-1 [8]): Dose-dependent effect; Activity (PANC-1 [9]): 8.37%; Activity [10]: 18.7%; viability at 1 µM (PANC-1 [11]): 64.1%; viability at 0.5 µM (PANC-1 [12]): 90%; Activity (PANC-1 [13]): 2.31%; Activity (PANC-1 [14]): 2.61%; Activity (PANC-1 [15]): 0.4%; Activity [16]: 25.9%; inhibition (PANC-1 [17]): Dose-dependent effect; Activity [18]: 21.4%; Activity [19]: 46.6%; Activity (PANC-1 [20]): 31.01%; Activity [21]: 32%; Activity (PANC-1 [22]): 1.27%; IC50 [5]: 4710 nM; inhibition (PANC-1 [23]): Active; IC50 [24]: 450 nM |
| CCOC(=O)[C@]1(C)CC[C@]2(C)CC[C@]3(C)C4=CC=C5C(=CC(=O)C(O)=C5C)[C@]4(C)CC[C@@]3(C)[C@@H]2C1 | 1970 nM | 1760 nM | 1560 nM | 54.8% |  |  |
| CC1=C(O)C(=O)C=C2C1=CC=C1[C@@]2(C)CC[C@@]2(C)[C@@H]3C[C@](C)(C(=O)NCCN4CCOCC4)CC[C@]3(C)CC[C@]12C | 1270 nM | 1340 nM | 1350 nM | 77.2% | 11.4 ×10⁻⁶ cm/s |  |
| CC1=C(O)C(=O)C=C2C1=CC=C1[C@@]2(C)CC[C@@]2(C)[C@@H]3C[C@](C)(C(=O)N4CCCC(C)C4)CC[C@]3(C)CC[C@]12C (stereo not given in full) | 2430 nM | 2030 nM | 1840 nM | 47.9% |  |  |
| CCN(CC)CCNC(=O)[C@]1(C)CC[C@]2(C)CC[C@]3(C)C4=CC=C5C(=CC(=O)C(O)=C5C)[C@]4(C)CC[C@@]3(C)[C@@H]2C1 | 710 nM | 1030 nM | 1270 nM | 94.5% | 53.1 ×10⁻⁶ cm/s | IC50 [5]: 5740 nM |
| CC1=C(O)C(=O)C=C2C1=CC=C1[C@@]2(C)CC[C@@]2(C)[C@@H]3C[C@](C)(C(=O)OC(C)C)CC[C@]3(C)CC[C@]12C | 2580 nM | 1320 nM | 1360 nM | 51.5% |  |  |
| CC1=C(O)C(=O)C=C2C1=CC=C1[C@@]2(C)CC[C@@]2(C)[C@@H]3C[C@](C)(C(=O)NCCN(C(C)C)C(C)C)CC[C@]3(C)CC[C@]12C | 800 nM | 1260 nM | 1050 nM | 81.6% | 35.2 ×10⁻⁶ cm/s |  |
| CC1=C(O)C(=O)C=C2C1=CC=C1[C@@]2(C)CC[C@@]2(C)[C@@H]3C[C@](C)(C(=O)N4CCCC4)CC[C@]3(C)CC[C@]12C | 2850 nM | 1810 nM | 2110 nM | 56.4% |  |  |
| CCNC(=O)[C@]1(C)CC[C@]2(C)CC[C@]3(C)C4=CC=C5C(=CC(=O)C(O)=C5C)[C@]4(C)CC[C@@]3(C)[C@@H]2C1 | 2080 nM | 1430 nM | 1820 nM | 69% |  |  |
| CC1=C(O)C(=O)C=C2C1=CC=C1[C@@]2(C)CC[C@@]2(C)[C@@H]3C[C@](C)(C(=O)N(C)C)CC[C@]3(C)CC[C@]12C | 1810 nM | 1430 nM | 2660 nM | 60.6% |  |  |
| CC1=C(O)C(=O)C=C2C1=CC=C1[C@@]2(C)CC[C@@]2(C)[C@@H]3C[C@](C)(C(=O)NCCS(C)(=O)=O)CC[C@]3(C)CC[C@]12C | 2410 nM | 1300 nM | 1200 nM | 69.8% |  |  |
| CC1=C(O)C(=O)C=C2C1=CC=C1[C@@]2(C)CC[C@@]2(C)[C@@H]3C[C@](C)(C(=O)NCCN4CCCC4)CC[C@]3(C)CC[C@]12C | 670 nM | 1100 nM | 1030 nM | 89.2% | 23 ×10⁻⁶ cm/s | IC50 [5]: 6500 nM |
| CC1=C(O)C(=O)C=C2C1=CC=C1[C@@]2(C)CC[C@@]2(C)[C@@H]3C[C@](C)(C(=O)NCCCn4ccnc4)CC[C@]3(C)CC[C@]12C | 3370 nM | 1840 nM | 1530 nM | 71.7% | 0.6 ×10⁻⁶ cm/s |  |
| CNC(=O)[C@]1(C)CC[C@]2(C)CC[C@]3(C)C4=CC=C5C(=CC(=O)C(O)=C5C)[C@]4(C)CC[C@@]3(C)[C@@H]2C1 | 1930 nM | 1200 nM | 1420 nM | 69.2% |  |  |
| COC(=O)[C@]1(C)CC[C@]2(C)CC[C@]3(C)C4=CC=C5C(=CC(=O)C(O)=C5C)[C@]4(C)CC[C@@]3(C)[C@@H]2C1 [PRISTIMERIN] | 1400 nM | 1570 nM | 1490 nM | 60.5% |  |  |
| CC(=O)NCCNC(=O)[C@]1(C)CC[C@]2(C)CC[C@]3(C)C4=CC=C5C(=CC(=O)C(O)=C5C)[C@]4(C)CC[C@@]3(C)[C@@H]2C1 | 3120 nM | 2260 nM | 3000 nM | 70.5% |  |  |
| CC1=C(O)C(=O)C=C2C1=CC=C1[C@@]2(C)CC[C@@]2(C)[C@@H]3C[C@](C)(C(=O)O)CC[C@]3(C)CC[C@]12C [CELASTROL] | 2020 nM | 2130 nM | 2480 nM | 91.8% | 13.3 ×10⁻⁶ cm/s | IC50 [5]: 6490 nM; IC50 [24]: 2010 nM |
